In ChEMBL document CHEMBL6096677, “Discovery of HZS60 as a Novel Brain Penetrant NMDAR/TRPM4 Interaction Interface Inhibitor with Improved Activity and Pharmacokinetic Properties for the Treatment of Cerebral Ischemia” (J Med Chem, 2025):

Legend:
[1] = MRT (0 to t) in ICR mouse at 25 mg/kg, IG by LC-MS/MS analysis; assay type: ADME, organism-based; settings: in vivo, po
[2] = Oral bioavailability in ICR mouse at 25 mg/kg by LC-MS/MS analysis; assay type: ADME, organism-based; settings: in vivo
[3] = Apparent volume of distribution in ICR mouse at 5 mg/kg, iv by LC-MS/MS analysis; assay type: ADME, organism-based; settings: in vivo, read-out: Vz
[4] = AUC (0 to t) in ICR mouse at 5 mg/kg, iv by LC-MS/MS analysis; assay type: ADME, organism-based; settings: in vivo
[5] = Half life in ICR mouse at 25 mg/kg, IG by LC-MS/MS analysis; assay type: ADME, organism-based; settings: in vivo, po
[6] = Tmax in ICR mouse at 25 mg/kg, IG by LC-MS/MS analysis; assay type: ADME, organism-based; settings: in vivo, po
[7] = MRT (0 to infinity) in ICR mouse at 5 mg/kg, iv by LC-MS/MS analysis; assay type: ADME, organism-based; settings: in vivo
[8] = test system: Cortical neurone; experiment: Neuroprotective activity against NMDA-induced excitotoxic cell death in C57BL/6 mouse primary cortical neurons assessed as cell viability at 10 uM by CCK8 assay (reference value: 16.31 +/- 3.19 %); assay type: functional; settings: C57BL/6, Cortical neurone, read-out: Activity
[9] = AUC (0 to infinity) in ICR mouse at 25 mg/kg, IG by LC-MS/MS analysis; assay type: ADME, organism-based; settings: in vivo, po
[10] = Tmax in ICR mouse at 5 mg/kg, iv by LC-MS/MS analysis; assay type: ADME, organism-based; settings: in vivo
[11] = Cmax in ICR mouse at 25 mg/kg, IG by LC-MS/MS analysis; assay type: ADME, organism-based; settings: in vivo, po
[12] = test system: Cortical neurone; experiment: Neuroprotective activity against OGD/R-induced ischemic injury in C57BL/6 mouse primary cortical neurons assessed as cell viability at 10 uM by CCK8 assay (reference value: 21.96 +/- 10.86 %); assay type: functional; settings: C57BL/6, Cortical neurone, read-out: Activity
[13] = Half life in ICR mouse at 5 mg/kg, iv by LC-MS/MS analysis; assay type: ADME, organism-based; settings: in vivo
[14] = MRT (0 to t) in ICR mouse at 5 mg/kg, iv by LC-MS/MS analysis; assay type: ADME, organism-based; settings: in vivo
[15] = MRT (0 to infinity) in ICR mouse at 25 mg/kg, IG by LC-MS/MS analysis; assay type: ADME, organism-based; settings: in vivo, po
[16] = AUC (0 to t) in ICR mouse at 25 mg/kg, IG by LC-MS/MS analysis; assay type: ADME, organism-based; settings: in vivo, po
[17] = Cmax in ICR mouse at 5 mg/kg, iv by LC-MS/MS analysis; assay type: ADME, organism-based; settings: in vivo
[18] = Clearance in ICR mouse at 5 mg/kg, iv by LC-MS/MS analysis; assay type: ADME, organism-based; settings: in vivo
[19] = AUC (0 to infinity) in ICR mouse at 5 mg/kg, iv by LC-MS/MS analysis; assay type: ADME, organism-based; settings: in vivo

| SMILES | viability at 10 µM [8] | further results |
| --- | --- | --- |
| CCN(CCN)Cc1cccc(Br)c1 | 63.2% | MRT last [1]: 2.38 h; bioavailability [2]: 66.4%; Vd [3]: 44.1 L/kg; AUC(0-t) [4]: 282 ng·h/mL; half-life [5]: 2.07 h; Tmax [6]: 0.583 h; MRT inf [7]: 2.15 h; AUC(0-inf) [9]: 980 ng·h/mL; Tmax [10]: 4.98 min; Cmax [11]: 348 ng/mL; viability at 10 µM [12]: 26.5%; half-life [13]: 1.82 h; MRT last [14]: 1.76 h; MRT inf [15]: 2.96 h; AUC(0-t) [16]: 914 ng·h/mL; Cmax [17]: 207 ng/mL; clearance [18]: 293 mL/min/kg; AUC(0-inf) [19]: 295 ng·h/mL |
| CCN(CCN)Cc1cc(C#N)ccc1Br | 77.8% |  |
| CCN(CCN)C(C)c1cccc(Br)c1F (configuration not stated) | 77% | viability at 10 µM [12]: 55.6% |
| CCN(CCN)Cc1cc(Br)ccc1F | 87.1% |  |
| CCN(CCN)C(C)c1cc(C#N)ccc1F (configuration not stated) | 82.4% | viability at 10 µM [12]: 34.6% |
| CCN(CCN)Cc1cc(Br)ccc1Cl | 84.9% |  |
| CCN(CCN)C1(c2cccc(Br)c2)CC1 | 39.1% |  |
| CCN(CCN)Cc1c(F)ccc(Br)c1F | 97.9% |  |
| NC1CCN(Cc2cccc(Br)c2)C1 (configuration not stated) | 20.1% |  |
| CCN(CCN)Cc1ccc(F)c(Br)c1 | 26.6% |  |
| CCN(CCN)Cc1cc(F)cc(C#N)c1 | 24% |  |
| CCN(CCN)Cc1cccc(Br)c1I | 11.5% |  |
| CCN(CCN)Cc1cccc([N+](=O)[O-])c1 | 36% |  |
| CCN(CCN)C(C)c1cccc(C#N)c1 (configuration not stated) | 85.7% | viability at 10 µM [12]: 69.7% |
| CCN(CCN)C(C)c1cc(C#N)ccc1Br (configuration not stated) | 55% |  |
| CCN(CCN)C(C)(C)c1cccc(Br)c1 | 52.5% |  |
| CCN(CCN)Cc1cc(Br)cc(C#N)c1 | 33% |  |
| CCN(CCN)C(C)c1c(F)ccc(Br)c1F (configuration not stated) | 51.6% |  |
| CCN(CCN)Cc1cccc(Br)c1F | 86.5% |  |
| NC1CCCN(Cc2cccc(Br)c2)C1 (configuration not stated) | 33% |  |
| CCN(CCN)Cc1cccc(-c2ccccc2)c1 | 24.9% |  |

| SMILES | viability at 10 µM [8] | further results |
| --- | --- | --- |
| CCCN(CCN)Cc1cccc(Br)c1 | 44.6% |  |
| CCN(CCNC)Cc1cccc(Br)c1 | 17.6% |  |
| CCN(CCN)Cc1cccc(C#N)c1F | 79.7% |  |
| CCN(CCN)Cc1cc(C#N)ccc1Cl | 86.5% |  |
| CCN(CCN)C(C)c1cccc(C#N)c1Br (configuration not stated) | 67.4% | viability at 10 µM [12]: 43.2% |
| CCN(CCN)C(C)c1cc(Br)ccc1Cl (configuration not stated) | 81.6% | viability at 10 µM [12]: 46.6% |
| CCN(CCN)Cc1cc(F)cc(Br)c1 | 18.3% |  |
| CCN(CCN1CCCC1)Cc1cccc(Br)c1 | 19.3% |  |
| CCN(CCN)Cc1cccc(Cl)c1 | 44.3% |  |
| CCN(CCN)Cc1ccc(Br)cc1 | 21.2% |  |
| CCN(CCN)C(C)c1cccc(Br)c1 (configuration not stated) | 95.9% | viability at 10 µM [12]: 53.2% |
| CCN(CCN)C(C)c1cc(Br)ccc1Br (configuration not stated) | 46.6% |  |
| CCN(CCN(C)C)Cc1cccc(Br)c1 | 18.4% |  |
| CCN(CCN)Cc1c(F)ccc(C#N)c1F | 90.4% |  |
| CCN(CCN)C(C)c1c(Cl)ccc(C#N)c1F (configuration not stated) | 64.5% | viability at 10 µM [12]: 38.8% |
| CCN(CCN)Cc1cccc(Br)c1Br | 86.5% |  |
| CCN(CCN)Cc1ccccc1Br | 46.2% |  |
| CCC(c1cccc(Br)c1)N(CC)CCN (configuration not stated) | 38.3% |  |
| CCN(CCN)Cc1cccc(C#N)c1Cl | 93.1% |  |
| CCN(CCN)C(C)c1cccc(C#N)c1F (configuration not stated) | 70.4% | viability at 10 µM [12]: 44.5% |
| CCN(CCN)C(C)c1cc(C#N)ccc1Cl (configuration not stated) | 77.7% | viability at 10 µM [12]: 61.1% |

| SMILES | viability at 10 µM [8] | further results |
| --- | --- | --- |
| CCN(CCN)Cc1c(Cl)ccc(C#N)c1F | 82.9% |  |
| CCN(CCN)Cc1c(F)ccc(C#N)c1Cl | 88% |  |
| CCN(CCN)C(C)c1cccc(C#N)c1Cl (configuration not stated) | 85.3% | viability at 10 µM [12]: 59.8% |
| CCN(CCN)Cc1cccc(OC)c1 | 39.6% |  |
| CCN(CCN)Cc1cccc(C)c1 | 22.7% |  |
| CCN(CCN)Cc1cccc(I)c1 | 44% |  |
| CCN(CCN)Cc1ccc(Br)c(C#N)c1 | 22.2% |  |
| CCN(CCN)C(C)c1cc(Br)ccc1F (configuration not stated) | 90.7% | viability at 10 µM [12]: 36.6% |
| CCN(CCN)Cc1cccc(C(F)(F)F)c1 | 16.9% |  |
| CCN(CCN)Cc1cccc(C#N)c1Br | 76.5% |  |
| CCN(CCN)Cc1cccc(C#N)c1 | 92.4% |  |
| CCN(CCN)Cc1ccc(Cl)c(C#N)c1 | 22.6% |  |
| CCN(CCCN)Cc1cccc(Br)c1 | 10.8% |  |
| CCN(CCN)Cc1cc(C#N)ccc1I | 74.6% |  |
| CCN(CCN)Cc1cc(C#N)ccc1F | 68.1% |  |
| CCN(CCN)Cc1ccc(F)c(C#N)c1 | 24.1% |  |
| CCN(CCN)Cc1cc(Br)ccc1Br | 83.4% |  |
| CCN(CCN)C(C)c1c(F)ccc(C#N)c1Cl (configuration not stated) | 70.5% | viability at 10 µM [12]: 64.3% |
| CCN(CCN)Cc1cccc(F)c1 | 32% |  |
| CCN(CCN)Cc1cccc(Br)c1Cl | 47.1% |  |
